Source: ChEMBL document CHEMBL1136817, “1,3,4-Trisubstituted pyrrolidine CCR5 receptor antagonists: modifications of the arylpropylpiperidine side chains” (Bioorg Med Chem Lett, 2003)

How the values were obtained:
[1] = target: T1, C-C chemokine receptor type 5 (Homo sapiens, UniProt P51681); test: (§1) Ability to displace [125I]- labeled MIP-1alpha from CCR5 receptor expressed on CHO cell membrane; assay type: cell membranes
Target sequence in this assay (P51681 whole entry): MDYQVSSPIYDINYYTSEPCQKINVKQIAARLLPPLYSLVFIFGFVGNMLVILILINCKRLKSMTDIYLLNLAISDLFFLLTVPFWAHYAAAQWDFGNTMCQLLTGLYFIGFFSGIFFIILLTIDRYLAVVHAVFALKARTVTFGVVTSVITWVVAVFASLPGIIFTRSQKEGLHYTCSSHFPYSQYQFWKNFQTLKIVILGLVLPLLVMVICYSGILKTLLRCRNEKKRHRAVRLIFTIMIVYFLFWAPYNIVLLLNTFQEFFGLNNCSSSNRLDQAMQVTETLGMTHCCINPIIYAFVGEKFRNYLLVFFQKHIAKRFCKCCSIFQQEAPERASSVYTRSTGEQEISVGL

[2] = system: Human immunodeficiency virus 1; test: In vitro antiviral activity against HIV-1 (BAL) in HeLa cells.; assay type: functional
[3] = Volume of distribution was evaluated in rhesus; assay type: ADME, organism-based; details: cercopithecidae, in vivo; read-out: Vdss
[4] = Half life was evaluated in rhesus; assay type: ADME; details: cercopithecidae, in vivo
[5] = Volume of distribution was evaluated in rat; assay type: ADME, organism-based; details: in vivo, read-out: Vdss
[6] = Inhibitory concentration by Peripheral blood mononuclear cells assay; assay type: functional; details: Homo sapiens
[7] = Plasma clearance was evaluated in dog; assay type: ADME, organism-based, Canis lupus familiaris; details: read-out: Clp
[8] = Inhibitory concentration measured by Peripheral blood mononuclear cells (BAL) viral assay; assay type: functional; details: Homo sapiens
[9] = Oral bioavailability in rat; assay type: ADME, organism-based; details: in vivo
[10] = Oral bioavailability in dog; assay type: ADME, organism-based, Canis lupus familiaris; details: in vivo
[11] = Oral bioavailability in Rhesus monkey; assay type: ADME, organism-based, Macaca mulatta; details: in vivo
[12] = Half life was evaluated in dog; assay type: ADME, organism-based, Canis lupus familiaris; details: in vivo
[13] = Half life was evaluated in rat; assay type: ADME, organism-based; details: in vivo
[14] = Plasma clearance was evaluated in rat; assay type: ADME, organism-based; details: read-out: Clp
[15] = Volume of distribution was evaluated in dog; assay type: ADME, organism-based, Canis lupus familiaris; details: in vivo, read-out: Vdss
[16] = Plasma clearance was evaluated in rhesus; assay type: ADME, organism-based; details: cercopithecidae, read-out: Clp
[17] = Oral bioavailability; assay type: ADME, organism-based; details: rat, in vivo
HeLa = test: Inhibitory concentration obtained in the HeLa cell anti infectivity assay versus BAL strain; assay type: functional; details: Homo sapiens
[18] = Inhibitory concentration measured by peripheral blood mononuclear cells (BAL) viral assay; assay type: functional, Homo sapiens
[19] = target: T1, C-C chemokine receptor type 5; test: as §1; assay type: cell membranes; remark: listed apart in the source
Target sequence in this assay (P51681 whole entry, looked up): as the sequence (P51681 whole entry) above

[20] = Human immunodeficiency virus 1, HeLa

| SMILES | IC50 [1] [nM] | IC90 [2, 20] [nM] | half-life [13] [min] | clearance [14] [mL/min/kg] | further results |
| --- | --- | --- | --- | --- | --- |
| O=C(O)[C@@H](CC1CC1)N1C[C@H](CN2CCC(CCC(CO)c3ccc(F)cc3)CC2)[C@@H](c2cccc(F)c2)C1 (stereo partly drawn) | 4.8 | 33 |  |  |  |
| O=C(O)[C@@H](CC1CC1)N1CC(CN2CCC(CCC(F)(F)c3ccc(F)cc3)CC2)[C@@H](c2cccc(F)c2)C1 (single isomer, unassigned) | 0.06 | 0.4 | 450 | 14 | Vd [3]: 2.8 L/kg; half-life [4]: 336 min; Vd [5]: 6.1 L/kg; IC95 [6]: < 0.02 µM; clearance [7]: 24 mL/min/kg; IC95 [8]: 0.012 µM; bioavailability [9]: 3.9%; bioavailability [10]: 37%; bioavailability [11]: 8%; half-life [12]: 144 min; Vd [15]: 3.7 L/kg; clearance [16]: 17.6 mL/min/kg |
| O=C(O)[C@@H](CC1CCC1)N1C[C@H](CN2CCC(CCCc3ccc(F)cc3)CC2)[C@@H](c2cccc(F)c2)C1 | 0.8 | 2 | 204 | 32 | bioavailability [17]: 16% |
| O=C(O)[C@@H](C1CCCCC1)N1C[C@H](CN2CCC(CCS(=O)(=O)c3ccc(F)cc3)CC2)[C@@H](c2cccc(F)c2)C1 | 1.1 | 0.4 |  |  |  |
| CC(O)(CCC1CCN(C[C@H]2CN([C@H](CC3CC3)C(=O)O)C[C@@H]2c2cccc(F)c2)CC1)c1ccc(F)cc1 (stereo partly drawn) | 1.6 | 1.2 | 96 | 5.4 | Vd [5]: 3.9 L/kg; bioavailability [9]: 10% |
| O=C(O)[C@@H](CC1CCC1)N1C[C@H](CN2CCC(CC[S+]([O-])c3ccc(F)cc3)CC2)[C@@H](c2cccc(F)c2)C1 (stereo in doubt; 31) | 0.4 |  |  |  | IC90 [2]: 0.8 nM |
| CC(C)[C@H](C(=O)O)N1C[C@H](CN2CCC(CCC(F)(F)c3ccc(F)cc3)CC2)[C@@H](c2cccc(F)c2)C1 | 0.5 | 33 |  |  |  |
| O=C(O)[C@@H](CC1CCC1)N1C[C@H](CN2CCC(CCCc3ccc(C(F)(F)F)cc3)CC2)[C@@H](c2cccc(F)c2)C1 | 0.2 | 11 |  |  |  |
| O=C(O)[C@@H](CC1CCC1)N1C[C@H](CN2CCC(CCCc3ccccc3)CC2)[C@@H](c2ccccc2)C1 |  |  |  |  | IC90 (HeLa): 1.2 nM; IC50 [18]: < 8 nM |
| COP(=O)(CCC1CCN(C[C@H]2CN([C@H](CC3CC3)C(=O)O)C[C@@H]2c2cccc(F)c2)CC1)c1ccccc1 (stereo partly drawn) | 19 |  |  |  |  |
| O=C(O)[C@@H](CC1CCC1)N1C[C@H](CN2CCC(CCCc3ccccc3)CC2)[C@@H](c2cccc(F)c2)C1 | 0.5 |  | 204 | 32 | bioavailability [17]: 24% |
| O=C(O)[C@@H](CC1CC1)N1C[C@H](CN2CCC(CCP(=O)(O)c3ccccc3)CC2)[C@@H](c2cccc(F)c2)C1 | 1000 |  |  |  |  |
| O=C(O)[C@@H](CC1CCC1)N1CC(CN2CCC(CCC(F)(F)c3ccc(F)cc3)CC2)[C@@H](c2ccccc2)C1 (single isomer, unassigned) | 0.2 |  |  |  |  |
| O=C(O)[C@@H](CC1CC1)N1C[C@H](CN2CCC(CCC(O)c3ccc(F)cc3)CC2)[C@@H](c2cccc(F)c2)C1 (stereo partly drawn) | 0.4 | 1.2 | 54 | 76 | Vd [5]: 3.3 L/kg; IC95 [8]: 0.015 µM; bioavailability [9]: 2% |
| N#Cc1ccc(CCCC2CCN(C[C@H]3CN([C@H](CC4CCC4)C(=O)O)C[C@@H]3c3cccc(F)c3)CC2)cc1 | 0.3 | 0.4 | 60 | 47.8 | bioavailability [17]: 7% |
| O=C(O)[C@@H](CC1CC1)N1C[C@H](CN2CCC(CCC3(c4ccc(F)cc4)OCCO3)CC2)[C@@H](c2cccc(F)c2)C1 | 3.7 | 100 |  |  |  |
| O=C(O)[C@@H](CC1CCC1)N1C[C@H](CN2CCC(CC[S+]([O-])c3ccc(F)cc3)CC2)[C@@H](c2cccc(F)c2)C1 (stereo in doubt; 30) | 0.5 |  |  |  | IC90 [2]: 33 nM |
| CC(C)[C@H](C(=O)O)N1C[C@H](CN2CCC(CCSc3ccc(F)cc3)CC2)[C@@H](c2cccc(F)c2)C1 | 0.8 | 100 |  |  |  |
| O=C(O)[C@@H](C1CCCCC1)N1C[C@H](CN2CCC(CCC(F)(F)c3ccc(F)cc3)CC2)[C@@H](c2ccccc2)C1 | 0.3 | 4 |  |  |  |
| CC(C)[C@H](C(=O)O)N1C[C@H](CN2CCC(CCS(=O)(=O)c3ccc(F)cc3)CC2)[C@@H](c2cccc(F)c2)C1 | 0.9 | 4 |  |  |  |
| O=C(O)[C@@H](CC1CCC1)N1CC(CN2CCC(CCC(F)(F)c3ccc(F)cc3)CC2)[C@@H](c2cccc(F)c2)C1 (single isomer, unassigned) | 0.3 | 1.6 | 186 | 18 | Vd [3]: 1.8 L/kg; half-life [4]: 144 min; Vd [5]: 2.2 L/kg; IC95 [8]: 0.018 µM; bioavailability [9]: 32%; bioavailability [11]: 12%; clearance [16]: 11 mL/min/kg |
| O=C(O)[C@@H](CC1CCC1)N1C[C@H](CN2CCC(CCS(=O)(=O)c3ccc(F)cc3)CC2)[C@@H](c2cccc(F)c2)C1 |  | 0.4 | 48 | 78 | Vd [5]: 1.9 L/kg; bioavailability [9]: 16%; IC50 [18]: 1.6 nM; IC95 [19]: 0.2 nM |
| O=C(O)C(CCC1CCN(C[C@H]2CN([C@H](CC3CC3)C(=O)O)C[C@@H]2c2cccc(F)c2)CC1)c1ccc(F)cc1 (stereo partly drawn) | 51 |  |  |  |  |
| O=C(CCC1CCN(C[C@H]2CN([C@@H](C(=O)O)C3CCCCC3)C[C@@H]2c2ccccc2)CC1)c1ccc(F)cc1 | 1.6 | 100 |  |  |  |
| COC(=O)C(CCC1CCN(C[C@H]2CN([C@H](CC3CC3)C(=O)O)C[C@@H]2c2cccc(F)c2)CC1)c1ccc(F)cc1 (stereo partly drawn) | 1.5 | 33 |  |  |  |
| O=C(O)[C@@H](CC1CCC1)N1C[C@H](CN2CCC(CCSc3ccc(F)cc3)CC2)[C@@H](c2cccc(F)c2)C1 | 0.1 | 4 |  |  |  |
